Source: patent US9139557B2, “Carboxamide compounds and their use as calpain inhibitors” (Abbott GmbH & Co. KG, priority 2006, dated 2015)

Assays:
Type in all cases: biochemical
cathepsin B = target: T1, cathepsin B (Homo sapiens, UniProt P07858); test: Cathepsin B enzyme inhibition in vitro (kinetic fluorescence assay); conditions: Ki(cathepsin B)/Ki(calpain) ratio
T1 construct: cathepsin B—isolated from human liver; purchased Calbiochem 219362; host or cells: human liver (tissue isolate)
Procedure, shortened: (§1)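 Kinetic fluorescence (ex 390/em 460 nm), room temperature: calpain-I (human erythrocyte, 20 nM) with 100 µM Suc-Leu-Tyr-AMC, imidazole/CaCl2 pH 7.3; cathepsin B (liver, 0.25 nM), 100 µM Z-Phe-Arg-AMC; L (liver, 1 nM), 2 µM Z-Phe-Arg-AMC; S (recombinant, 0.5 nM), 20 µM Z-Val-Val-Arg-AMC; cathepsins in MES/EDTA/cysteine pH 6.0. Apparent Ki via Cheng-Prusoff, 2–4 curves averaged.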

cathepsin K = target: T2, cathepsin K (Homo sapiens, UniProt P43235); test: Cathepsin K enzyme inhibition in vitro (kinetic fluorescence assay); conditions: Ki(cathepsin K)/Ki(calpain) ratio
T2 construct: purchased Calbiochem 342001; host or cells: E. coli
T2 sequence (P43235 115-329): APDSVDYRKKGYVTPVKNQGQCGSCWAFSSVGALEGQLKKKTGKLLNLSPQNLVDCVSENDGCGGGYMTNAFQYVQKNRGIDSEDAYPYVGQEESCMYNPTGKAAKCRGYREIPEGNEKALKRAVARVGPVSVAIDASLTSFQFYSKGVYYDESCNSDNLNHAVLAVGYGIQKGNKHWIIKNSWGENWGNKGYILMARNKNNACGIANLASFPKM

cathepsin S = target: T3, cathepsin S (Homo sapiens, UniProt P25774); test: Cathepsin S enzyme inhibition in vitro (kinetic fluorescence assay); conditions: Ki(cathepsin S)/Ki(calpain) ratio
T3 construct: purchased Calbiochem 219343; host or cells: E. coli
Procedure, shortened: as §1

cathepsin L = target: T4, cathepsin L (Homo sapiens, UniProt P07711); test: Cathepsin L enzyme inhibition in vitro (kinetic fluorescence assay); conditions: Ki(cathepsin L)/Ki(calpain) ratio
T4 construct: cathepsin L—isolated from human liver; purchased Calbiochem 219402; host or cells: human liver (tissue isolate)
Procedure, shortened: as §1

T3 sequence (P25774 115-331): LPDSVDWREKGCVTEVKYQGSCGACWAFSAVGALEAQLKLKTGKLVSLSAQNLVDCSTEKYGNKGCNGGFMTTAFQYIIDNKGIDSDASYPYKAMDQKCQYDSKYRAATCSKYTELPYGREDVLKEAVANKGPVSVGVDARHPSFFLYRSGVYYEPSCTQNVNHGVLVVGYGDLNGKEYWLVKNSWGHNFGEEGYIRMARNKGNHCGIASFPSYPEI
T4 sequence (P07711 114-333): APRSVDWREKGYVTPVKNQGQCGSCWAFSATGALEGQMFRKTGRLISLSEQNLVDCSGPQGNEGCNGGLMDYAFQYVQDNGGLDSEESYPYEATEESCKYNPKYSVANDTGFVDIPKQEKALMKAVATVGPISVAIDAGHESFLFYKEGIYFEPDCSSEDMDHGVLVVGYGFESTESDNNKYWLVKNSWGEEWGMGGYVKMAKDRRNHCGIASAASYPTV

SMILES	Sel cat. B (cathepsin B)	Sel cat. K (cathepsin K)	Sel cat. S (cathepsin S)	Sel cat. L (cathepsin L)
NC(=O)C(=O)C(Cc1ccccc1)NC(=O)c1cccnc1-n1ccc(-c2ccc(F)cc2F)n1 (stereo not drawn) [Example 94, N-[3-Amino-2,3-dioxo-1-(phenylmethyl)propyl]-2-[3-(2,4-difluorophenyl)-1H-pyrazol-1-yl]pyridine-3-carboxamide]	++ (++ means a Ki(cathepsin B)/Ki(calpain) ratio of ≧30)	+ (+ means 10≦Ki(cathepsin K)/Ki(calpain)<30)	++ (++ means a Ki(cathepsin S)/Ki(calpain) ratio of ≧100)	++ (++ means a Ki(cathepsin L)/Ki(calpain) ratio of ≧50)
NC(=O)C(=O)C(Cc1ccccc1)NC(=O)c1cccnc1-n1ccc(-c2c(Cl)cccc2Cl)n1 (stereo not drawn) [Example 95, N-[3-Amino-2,3-dioxo-1-(phenylmethyl)propyl]-2-[3-(2,6-dichlorophenyl)-1H-pyrazol-1-yl]pyridine-3-carboxamide]	++ (++ means a Ki(cathepsin B)/Ki(calpain) ratio of ≧30)	++ (++ means a Ki(cathepsin K)/Ki(calpain) ratio of ≧30)	++ (++ means a Ki(cathepsin S)/Ki(calpain) ratio of ≧100)	++ (++ means a Ki(cathepsin L)/Ki(calpain) ratio of ≧50)
NC(=O)C(=O)C(Cc1ccccc1)NC(=O)c1cccnc1-n1ccc(-c2cccc(OCc3ccccc3)c2)n1 (stereo not drawn) [Example 96, N-[3-Amino-2,3-dioxo-1-(phenylmethyl)propyl]-2-(3-{3-[(phenylmethyl)oxy]phenyl}-1H-pyrazol-1-yl)pyridine-3-carboxamide]	++ (++ means a Ki(cathepsin B)/Ki(calpain) ratio of ≧30)	++ (++ means a Ki(cathepsin K)/Ki(calpain) ratio of ≧30)	++ (++ means a Ki(cathepsin S)/Ki(calpain) ratio of ≧100)	++ (++ means a Ki(cathepsin L)/Ki(calpain) ratio of ≧50)
COc1ccc(CC(NC(=O)c2cccnc2-n2ccc(-c3ccc(F)cc3F)n2)C(=O)C(N)=O)cc1 (stereo not drawn) [Example 97, N-(3-Amino-1-{[4-(methyloxy)phenyl]methyl}-2,3-dioxopropyl)-2-[3-(2,4-difluorophenyl)-1H-pyrazol-1-yl]pyridine-3-carboxamide]	++ (++ means a Ki(cathepsin B)/Ki(calpain) ratio of ≧30)	+ (+ means 10≦Ki(cathepsin K)/Ki(calpain)<30)	++ (++ means a Ki(cathepsin S)/Ki(calpain) ratio of ≧100)	++ (++ means a Ki(cathepsin L)/Ki(calpain) ratio of ≧50)
COc1ccc(CC(NC(=O)c2cccnc2-n2ccc(-c3ccc(Cl)cc3Cl)n2)C(=O)C(N)=O)cc1 (stereo not drawn) [Example 98, N-(3-Amino-1-{[4-(methyloxy)phenyl]methyl}-2,3-dioxopropyl)-2-[3-(2,4-dichlorophenyl)-1H-pyrazol-1-yl]pyridine-3-carboxamide]	++ (++ means a Ki(cathepsin B)/Ki(calpain) ratio of ≧30)	++ (++ means a Ki(cathepsin K)/Ki(calpain) ratio of ≧30)	++ (++ means a Ki(cathepsin S)/Ki(calpain) ratio of ≧100)	++ (++ means a Ki(cathepsin L)/Ki(calpain) ratio of ≧50)
NC(=O)C(=O)C(Cc1ccccc1)NC(=O)c1cccnc1-n1ccc(-c2ccc(N3CCOCC3)cc2Cl)n1 (stereo not drawn) [Example 99, N-[3-Amino-2,3-dioxo-1-(phenylmethyl)propyl]-2-[3-(2-chloro-4-morpholin-4-ylphenyl)-1H-pyrazol-1-yl]pyridine-3-carboxamide]	++ (++ means a Ki(cathepsin B)/Ki(calpain) ratio of ≧30)	++ (++ means a Ki(cathepsin K)/Ki(calpain) ratio of ≧30)	++ (++ means a Ki(cathepsin S)/Ki(calpain) ratio of ≧100)	++ (++ means a Ki(cathepsin L)/Ki(calpain) ratio of ≧50)
NC(=O)C(=O)C(Cc1ccccc1)NC(=O)c1cccnc1-n1cc2c(n1)-c1ccccc1OC2 (stereo not drawn) [Example 100, N-[3-Amino-2,3-dioxo-1-(phenylmethyl)propyl]-2-chromeno[4,3-c]pyrazol-2(4H)-ylpyridine-3-carboxamide]	+ (+ means 10≦Ki(cathepsin B)/Ki(calpain)<30)	++ (++ means a Ki(cathepsin K)/Ki(calpain) ratio of ≧30)	++ (++ means a Ki(cathepsin S)/Ki(calpain) ratio of ≧100)	++ (++ means a Ki(cathepsin L)/Ki(calpain) ratio of ≧50)
NC(=O)C(=O)C(Cc1ccccc1)NC(=O)c1cccnc1-n1ccc(-c2ccc(N3CCOCC3)cc2F)n1 (stereo not drawn) [Example 102, N-[3-Amino-2,3-dioxo-1-(phenylmethyl)propyl]-2-[3-(2-fluoro-4-morpholin-4-ylphenyl)-1H-pyrazol-1-yl]pyridine-3-carboxamide]	+ (+ means 10≦Ki(cathepsin B)/Ki(calpain)<30)	++ (++ means a Ki(cathepsin K)/Ki(calpain) ratio of ≧30)	++ (++ means a Ki(cathepsin S)/Ki(calpain) ratio of ≧100)	++ (++ means a Ki(cathepsin L)/Ki(calpain) ratio of ≧50)
NC(=O)C(=O)C(Cc1ccccc1)NC(=O)c1cccnc1-n1ccc(-c2ccc(Cl)s2)n1 (stereo not drawn) [Example 103, N-[3-Amino-2,3-dioxo-1-(phenylmethyl)propyl]-2-[3-(5-chloro-2-thienyl)-1H-pyrazol-1-yl]pyridine-3-carboxamide]	+ (+ means 10≦Ki(cathepsin B)/Ki(calpain)<30)	+ (+ means 10≦Ki(cathepsin K)/Ki(calpain)<30)	++ (++ means a Ki(cathepsin S)/Ki(calpain) ratio of ≧100)	++ (++ means a Ki(cathepsin L)/Ki(calpain) ratio of ≧50)
NC(=O)C(=O)[C@H](Cc1ccccc1)NC(=O)c1cccnc1-n1ccc(-c2ccccc2)n1 [Example 107, N-[(1S)-3-Amino-2,3-dioxo-1-(phenylmethyl)propyl]-2-(3-phenyl-1H-pyrazol-1-yl)pyridine-3-carboxamide]	+ (+ means 10≦Ki(cathepsin B)/Ki(calpain)<30)	+ (+ means 10≦Ki(cathepsin K)/Ki(calpain)<30)	++ (++ means a Ki(cathepsin S)/Ki(calpain) ratio of ≧100)	++ (++ means a Ki(cathepsin L)/Ki(calpain) ratio of ≧50)
NC(=O)C(=O)C(Cc1ccccc1)NC(=O)c1cccnc1-n1ccc(-c2sccc2Cl)n1 (stereo not drawn) [Example 109, N-[3-Amino-2,3-dioxo-1-(phenylmethyl)propyl]-2-[3-(3-chloro-2-thienyl)-1H-pyrazol-1-yl]pyridine-3-carboxamide]	++ (++ means a Ki(cathepsin B)/Ki(calpain) ratio of ≧30)	++ (++ means a Ki(cathepsin K)/Ki(calpain) ratio of ≧30)	++ (++ means a Ki(cathepsin S)/Ki(calpain) ratio of ≧100)	++ (++ means a Ki(cathepsin L)/Ki(calpain) ratio of ≧50)
NC(=O)C(=O)C(Cc1ccccc1)NC(=O)c1cccnc1-n1ccc(-c2cccc3ccccc23)n1 (stereo not drawn) [Example 110, N-[3-Amino-2,3-dioxo-1-(phenylmethyl)propyl]-2-(3-naphthalen-1-yl-1H-pyrazol-1-yl)pyridine-3-carboxamide]	++ (++ means a Ki(cathepsin B)/Ki(calpain) ratio of ≧30)	++ (++ means a Ki(cathepsin K)/Ki(calpain) ratio of ≧30)	++ (++ means a Ki(cathepsin S)/Ki(calpain) ratio of ≧100)	++ (++ means a Ki(cathepsin L)/Ki(calpain) ratio of ≧50)
COc1ccc(CC(NC(=O)c2cccnc2-n2ccc(-c3ccc(F)cc3Cl)n2)C(=O)C(N)=O)cc1 (stereo not drawn) [Example 111, N-(3-Amino-1-{[4-(methyloxy)phenyl]methyl}-2,3-dioxopropyl)-2-[3-(2-chloro-4-fluorophenyl)-1H-pyrazol-1-yl]pyridine-3-carboxamide]	++ (++ means a Ki(cathepsin B)/Ki(calpain) ratio of ≧30)	++ (++ means a Ki(cathepsin K)/Ki(calpain) ratio of ≧30)	++ (++ means a Ki(cathepsin S)/Ki(calpain) ratio of ≧100)	++ (++ means a Ki(cathepsin L)/Ki(calpain) ratio of ≧50)
NC(=O)C(=O)C(Cc1ccccc1)NC(=O)c1cccnc1-n1ccc(-c2cc(Cl)ccc2Cl)n1 (stereo not drawn) [Example 112, N-[3-Amino-2,3-dioxo-1-(phenylmethyl)propyl]-2-[3-(2,5-dichlorophenyl)-1H-pyrazol-1-yl]pyridine-3-carboxamide]	++ (++ means a Ki(cathepsin B)/Ki(calpain) ratio of ≧30)	++ (++ means a Ki(cathepsin K)/Ki(calpain) ratio of ≧30)	++ (++ means a Ki(cathepsin S)/Ki(calpain) ratio of ≧100)	++ (++ means a Ki(cathepsin L)/Ki(calpain) ratio of ≧50)
NC(=O)C(=O)C(Cc1ccc(F)cc1)NC(=O)c1cccnc1-n1ccc(-c2ccc(Cl)cc2Cl)n1 (stereo not drawn) [Example 114, N-{-3-Amino-1-[(4-fluorophenyl)methyl]-2,3-dioxopropyl}-2-[3-(2,4-dichlorophenyl)-1H-pyrazol-1-yl]pyridine-3-carboxamide]	++ (++ means a Ki(cathepsin B)/Ki(calpain) ratio of ≧30)	++ (++ means a Ki(cathepsin K)/Ki(calpain) ratio of ≧30)	++ (++ means a Ki(cathepsin S)/Ki(calpain) ratio of ≧100)	++ (++ means a Ki(cathepsin L)/Ki(calpain) ratio of ≧50)
